ChEMBL document CHEMBL5634111, “Design, synthesis, and anti-respiratory syncytial virus potential of novel 3-(1,2,3-triazol-1-yl)furoxazine-fused benzimidazole derivatives” (Eur J Med Chem, 2023)

Experiments:
[1] = Cytotoxicity against human HepG2 cells measured after 24 hrs by MTT assay; format: toxicity, cell-based
[2] = system: Respiratory syncytial virus; test: Antiviral activity against RSV infected in human HepG2 cells preincubated for 24 hrs followed by viral infection for 2 hrs and measured after 60 hrs by MTT assay; format: functional, organism-based
[3] = Selectivity index, ratio of CC50 for human HepG2 cells to EC50 for RSV infected in human HepG2 cells; format: toxicity, cell-based; conditions: read-out: Ratio CC50/EC50

Structure (SMILES) | CC50 at 24 h [1] [µM] | EC50 [2] [µM] | selectivity ratio [3]
Brc1cc2nc3n(c2cc1Br)[C@H]1OC[C@H](n2cc(-c4ccccc4)nn2)[C@H]1OC3 | 63.6 | – | –
CCCCCCc1cn([C@H]2CO[C@H]3[C@@H]2OCc2nc4cc(Br)c(Br)cc4n23)nn1 | 52.3 | – | –
OCc1cn([C@H]2CO[C@H]3[C@@H]2OCc2nc4cc(Br)c(Br)cc4n23)nn1 | 104 | – | –
Cc1c(Br)cc2nc3n(c2c1Br)[C@H]1OC[C@H](n2cc(-c4ccccc4)nn2)[C@H]1OC3 | 53.3 | – | –
Brc1cc2nc3n(c2cc1Br)[C@H]1OC[C@H](n2cc(C4CC4)nn2)[C@H]1OC3 | 40 | 6.26 | 6.39
CCOC(=O)c1cn([C@H]2CO[C@H]3[C@@H]2OCc2nc4cc(Br)c(Br)cc4n23)nn1 | 26.9 | – | –
OCCCc1cn([C@H]2CO[C@H]3[C@@H]2OCc2nc4cc(Br)c(Br)cc4n23)nn1 | 150 | – | –
Brc1cc2nc3n(c2cc1Br)[C@H]1OC[C@H](n2cc(COc4ccccc4)nn2)[C@H]1OC3 | 121 | 21.9 | 5.73
OCCc1cn([C@H]2CO[C@H]3[C@@H]2OCc2nc4cc(Br)c(Br)cc4n23)nn1 | 70.1 | – | –
Cc1cn([C@H]2CO[C@H]3[C@@H]2OCc2nc4cc(Br)c(C)c(Br)c4n23)nn1 | 94.6 | 14.2 | 6.68
CCCCCc1cn([C@H]2CO[C@H]3[C@@H]2OCc2nc4cc(Br)c(Br)cc4n23)nn1 | 237 | – | –
NC(=O)c1ncn([C@@H]2O[C@H](CO)[C@@H](O)[C@H]2O)n1 [RIBAVIRIN] | 246 | 8.41 | 29.2
